Measured values: article PMC12530846, “Development of Novel Anticancer Pyrazolopyrimidinones Targeting Glioblastoma” (Chemmedchem, 2025)

Tests used:
Assay type in all cases: cell-based, human
[1] = test system: U‐251 MG and HEK293 cells; assay: Statistical comparison of dose–response in U‐251 MG versus HEK293 (selectivity, HIT criteria); details: for All criteria met -Yes/No: HIT criteria and statistical testing, Table S1; for Selectivity for cancer cells with IC50 < 50 [µM]‐Yes/No: HEK293 IC50 higher than U‐251 MG IC50, U‐251 MG IC50 below 50 µM
[2] = test system: U‐251 MG cells; assay: MTT cell viability assay, U‐251 MG glioblastoma cells, 5 days treatment; details: for cytotoxicity / biological effect on U‐251 MG, in words: 5 days, up to 100 µM; for IC50: 5 days treatment, 100–0 µM
Method: (§1) Dose–response curves for each of the pyrazolo[1,5‐α]pyrimidinones were performed to determine the cytotoxic effect of the compounds on a cancerous, U‐251 MG cell line and a noncancerous, HEK293 cell line. The synthesized pyrazolopyrimidinones were dissolved in DMSO (Merck) to obtain a stock solution which was stored at −20 °C. […] U‐251 MG and HEK293 cells were seeded at a density of 2 x 10^3 cells per well (100 μL) in a 96‐well plate (Sarstedt) and incubated for 24 h prior to each treatment to allow for cell adhesion. The stock solution was diluted in media to working concentrations of 100, 75, 50, 25, 10, 5, and 0.1 μM. Media on the seeded cells was then replaced with the working concentrations of the compound or the controls in a 96‐well plate (100 μL). The treated plate was incubated at 37 °C in the humidified incubator for 5 days. Cell viability was assessed after 5 days using the MTT assay. Dose–response curves were then plotted relative to the positive control whereby cells were treated 20% DMSO and a negative control whereby cells were maintained in fresh DMEM.
(§2) To determine the extent of the cytotoxic effect of the pyrazolopyrimidinone on each cell line, the cell viability at each working concentration was determined via the MTT assay (Merck). The working solution of MTT used was 5 mg MTT per 1 ml of PBS diluted in 9 ml of media. After 5 days of incubation, the treatment was removed from each of the wells and replaced with 100 μL of fresh MTT solution. The plate was then incubated for 3 h at 37 °C in a humidified incubator to allow the reduction of the yellow tetrazolium salt to purple formazan crystals. After the incubation, the MTT solution was removed from the wells and replaced with 100 μL of DMSO for 15 min to dissolve the formazan crystals. The absorbance was read at 570 nm using a spectrophotometric microplate reader (Thermo Fisher Scientific).
(§3) Each of the experiments was performed at least three independent times, with a minimum of six technical replicates per experiment. Statistical analysis was carried out using GraphPad Prism version 8.0.0 (GraphPad Softwares, Inc.). Curve fitting and the IC50 values were obtained through the dose–response curves using nonlinear regression. To determine if the dose–response curves were statistically distinct and not overlapping, extra sum‐of‐squares F‐test was used, and a p‐value was obtained. The effect of compound treatment on both cell lines was statistically compared via two‐way ANOVA with Tukey's post‐test. The CytExpert (Beckman Coulter) software was used for flow cytometry analysis. Graphs represent the % dead cells whereby the total number of dead cells was divided by the total cell population. The statistical significance of the flow cytometry results was determined via one‐way analysis of variance (ANOVA) with Dunnett's T3 multiple comparison post‐test. Data is presented as the mean ± standard error of mean (SEM). Summary of results from statistical analysis reports p‐values as follows: ≥0.05 (ns), 0.01–0.05 (*), 0.001–0.01 (**), […], and <0.0001(****).

[3] = test system: HEK293 cells; assay: MTT cell viability assay, noncancerous HEK293 cells, 5 days treatment; details: for cytotoxicity / biological response in HEK293, in words: 5 days, up to 100 µM, threshold 50 µM; for IC50: 5 days treatment, 100–0 µM
Method: as §1, §2, §3

[4] = test system: U‐251 MG cells; assay: JC‐1 flow cytometry, mitochondrial membrane depolarization / apoptosis; details: 5 days; for JC-1: significance of cell death, Neg Ctrl v HNT / JC-1: significance of cell death, Neg Ctrl v 50 µM: U‐251 MG; for JC-1: significance of cell death, Neg Ctrl v 50 µM: highest toxic concentration 50 µM; for apoptosis observed (JC-1): example analysis, negative control 8.64 %
Method: JC‐1 dye forms aggregates in healthy mitochondria which changes the fluorescent property of the dye. […] Stock solutions of JC‐1 dye (Merck) were prepared at 1 mg/mL in DMSO and stored at −20 °C. U‐251 MG cells were seeded in 6‐well plates (Sarstedt) at a seeding density of 2 x 10^4 cells per well (1000μL) after which cells were treated with drug concentrations (highest toxic, IC50, nontoxic). After 5 days incubation, the compound and wash step with PBS was collected in falcon tubes. The cells were then harvested by trypsinization (500 μL), incubated for a period of 6 min, neutralized with media (1000 μL), and pelleted at 1200rpm for 5 min. A JC‐1 working solution of 2 μg/mL was made up in DMEM and was light protected. The cell pellet was resuspended and stained with 2 μg/mL JC‐1 dye and incubated and protected from the light for a period of 10 min. Cells were then centrifuged at 1200rpm for 5 min. The supernatant was removed, and cells were washed with 1 mL of sterile PBS. This was repeated twice. […] Cells were also treated using controls whereby the positive control used was DMEM and 20% DMSO and the negative control used was fresh media. The cells were then analyzed using flow cytometry (Beckmann Coulter, CytExpert version 2.4.0.28). Fluorescence was measured using FL1 (FITC) (530 nm) and FL2 (PE) (595 nm) channels with emission.
as §3

[5] = test system: U‐251 MG cells; assay: Propidium iodide (PI) flow cytometry, cell membrane permeabilization; details: 5 days; for PI: significance of cell death, Neg Ctrl v HNT: highest non-toxic concentration; for PI: significance of cell death, Neg Ctrl v 50 µM: highest toxic concentration 50 µM
Method: Propidium iodide (PI) is a DNA staining, cell membrane impermeable dye which was used to assess cell death via loss of membrane integrity and is used to indicate necrotic or late apoptotic cells. Stock solutions of PI dye (Merck, Ireland) were prepared at 10 μg/mL in PBS and stored at −20 °C. U‐251 MG cells were seeded in 96‐well plates at a seeding density of 2 x 10^3 cells per well (100 μL), as previously stated. […] Subsequently, the compound was collected in 15 ml falcon tubes. Cells were washed with PBS (100 μL), and the PBS was collected in corresponding tubes to ensure all cells are collected. The cells were collected using 0.25% trypsin‐EDTA (50 μL) with a 6‐min incubation and media neutralization (100 μL). Each tube was centrifuged at 1200rpm for 5 min to obtain a pellet. The supernatant was removed, and the pellet was resuspended in PBS and transferred to an Eppendorf tube. Ten microliters of PI stain (2.5 μg/ml) was added to the Eppendorf tubes, and the tubes were incubated for a period of 15 min. Cells were also treated using controls whereby the positive control used was DMEM and 20% DMSO and the negative control used was fresh media. The cells were then analyzed using flow cytometry (Beckmann Coulter, CytExpert version 2.4.0.28). Fluorescence was measured using the FL2 channel. PI was detected in the red channel which is R‐phycoerythrin (PE‐Cy5). PE was used in combination with fluorescein isothiocyanate (FITC) and is excited at a wavelength of 488 nm.
as §3

[6] = highest non-toxic concentration

SMILES | All criteria met -Yes/No [1] | IC50 ([2]; Homo sapiens, U-251, 120 h) [µM] | Selectivity for cancer cells with IC50 < 50 [µM]‐Yes/No [1] | IC50 [2] [µM] | IC50 ([3]; Homo sapiens, HEK293, 120 h) [µM] | further results
Cc1cc(=O)n2nc(-c3ccccc3)cc2[nH]1 [Compound 14] | No | 81.5 | – | – | – | cytotoxicity / biological effect on U‐251 MG, in words [2]: did not elicit a biological effect; cytotoxicity / biological response in HEK293, in words [3]: did not elicit a biological effect
CC(C)(C)c1cc2[nH]c(-c3ccccc3)cc(=O)n2n1 [Compound 17] | No | 76.6 | – | – | – | –
O=c1cc(-c2cc(C(F)(F)F)cc(C(F)(F)F)c2)[nH]c2cc(-c3ccc(Cl)cc3)nn12 [Compound 8] | – | < 30 | Yes | 17.3 | > 50 | IC50 [3]: 52.4 µM; cytotoxicity / biological response in HEK293, in words [3]: did not elicit any biological response
O=c1cc(-c2cc(C(F)(F)F)cc(C(F)(F)F)c2)[nH]c2cc(-c3cccc(Cl)c3)nn12 [Compound 12] | No | 21.7 | – | – | < 30 | IC50 [3]: 29.5 µM
COc1ccc(-c2cc3[nH]c(-c4cc(C(F)(F)F)cc(C(F)(F)F)c4)cc(=O)n3n2)cc1 [Compound 11] | No | 23.5 | No | – | < 30 | IC50 [3]: 29.5 µM
O=c1cc(-c2cc(C(F)(F)F)cc(C(F)(F)F)c2)[nH]c2cc(-c3cccc(Br)c3)nn12 [Compound 21, 5‐(3,5‐Bis(trifluoromethyl)phenyl)‐2‐(3‐bromophenyl)pyrazolo[1,5‐α]pyrimidin‐7(4¬H)‐one] | Yes | 0.714 | Yes | 0.71 | 19 | JC-1: significance of cell death, Neg Ctrl v HNT [4, 6]: *** (0.001 to 0.01(***)); JC-1: significance of cell death, Neg Ctrl v 50 µM [4]: *** (0.001 to 0.01(***)); cell membrane permeabilization‐dependent cell death (PI), in words [5]: significant cell membrane permeabilization‐dependent cell death; PI: significance of cell death, Neg Ctrl v HNT [5]: ns (≥0.05 (ns)); PI: significance of cell death, Neg Ctrl v 50 µM [5]: **** (<0.0001(****))
O=c1cc(-c2cc(C(F)(F)F)cc(C(F)(F)F)c2)[nH]c2cc(-c3ccco3)nn12 [Compound 13] | No | – | – | – | – | cytotoxicity / biological effect on U‐251 MG, in words [2]: no cytotoxicity; cytotoxicity / biological response in HEK293, in words [3]: no cytotoxicity
O=c1cc(-c2cc(C(F)(F)F)cc(C(F)(F)F)c2)[nH]c2cc(-c3ccc(F)cc3)nn12 [Compound 6] | – | 52.2 | No | – | 68.2 | –
Cc1cc(=O)n2nc(C(C)C)cc2[nH]1 [Compound 1] | – | – | No | – | – | –
Cc1cc2[nH]c(C)cc(=O)n2n1 [Compound 16] | No | – | – | – | – | –
O=c1cc(-c2cc(C(F)(F)F)cc(C(F)(F)F)c2)[nH]c2cc(-c3ccccc3Br)nn12 [Compound 22] | Yes | 2.79 | Yes | 2.79 | 66.9 | JC-1: significance of cell death, Neg Ctrl v HNT [4, 6]: ns (≥0.05 (ns)); JC-1: significance of cell death, Neg Ctrl v 50 µM [4]: * (0.01 to 0.05 (*)); cell membrane permeabilization‐dependent cell death (PI), in words [5]: significant cell membrane permeabilization‐dependent cell death; PI: significance of cell death, Neg Ctrl v 50 µM [5]: **** (<0.0001(****))
O=c1cc(-c2cc(C(F)(F)F)cc(C(F)(F)F)c2)[nH]c2cc(-c3ccccc3)nn12 [Compound 5] | Yes | – | Yes | – | – | apoptosis observed (JC-1) ([4]; IC50 concentration): 15.55%; apoptosis observed (JC-1) [4, 6]: 14.34%; apoptosis observed (JC-1) ([4]; highest toxic concentration): 52.97%; cell membrane permeabilization‐dependent cell death (PI), in words [5]: did not induce cell death by cell wall permeabilization; cytotoxicity / biological response in HEK293, in words [3]: did not elicit any biological response
CCc1cc(=O)n2nc(C(C)C)cc2[nH]1 [Compound 19] | No | 154 | – | – | – | –
O=c1cc(-c2cc(C(F)(F)F)cc(C(F)(F)F)c2)[nH]c2cc(-c3cccc([N+](=O)[O-])c3)nn12 [Compound 23] | – | 29.6 | Yes | 23.2 | 60.3 | –
O=c1cc(-c2cc(C(F)(F)F)cc(C(F)(F)F)c2)[nH]c2cc(-c3ccc([N+](=O)[O-])cc3)nn12 [Compound 10] | Yes | – | Yes | – | > 50 | JC-1: significance of cell death, Neg Ctrl v HNT [4, 6]: * (0.01 to 0.05 (*)); JC-1: significance of cell death, Neg Ctrl v 50 µM [4]: *** (0.001 to 0.01(***)); cell membrane permeabilization‐dependent cell death (PI), in words [5]: significant cell membrane permeabilization‐dependent cell death; PI: significance of cell death, Neg Ctrl v HNT [5]: ns (≥0.05 (ns)); IC50 [3]: 73.8 µM; cytotoxicity / biological response in HEK293, in words [3]: did not elicit any biological response
O=c1cc(-c2cc(C(F)(F)F)cc(C(F)(F)F)c2)[nH]c2cc(-c3cccc(C(F)(F)F)c3)nn12 [Compound 20] | No | 31 | – | – | – | –
CC(C)c1cc2[nH]c(-c3cc(C(F)(F)F)cc(C(F)(F)F)c3)cc(=O)n2n1 [Compound 4] | – | < 20 | No | 14 | 7.38 | –
Cc1cc(C)cc(-c2cc(=O)n3nc(C(C)C)cc3[nH]2)c1 [Compound 3] | – | – | No | – | 6.52 | –
CC(C)c1cc2[nH]c(-c3ccccc3)cc(=O)n2n1 [Compound 2] | – | < 20 | No | 20.6 | 9.8 | –
CC(C)c1cc2[nH]c(C(C)C)cc(=O)n2n1 [Compound 18] | No | 170 | No | – | 118 | –
